One series has as its system avocados. On the set-up: species or system avocado. As to conditions: in vivo. How it is done:
Example 11. The ripening characteristics of avocados exposed to AITC vapor was analyzed. Treatment groups consisted of avocados that were: exposed to the vapor of 125 μL of AITC in a Petri dish for 30 min and 18 hours; exposed to the vapor of 500 μL of AITC for 30 minutes and 18 hours; untreated and kept 18 hours in a bin; and treated with a coating agent. Two sets of the preceding test groups were studied. One set was treated when cold along with coated fruit (i.e., fruit treated with a coating agent (95 wt % glyceryl monostearate and 5 wt % sodium stearate) and another set was treated when warm (one day out of cold storage). Daily measurements were made of respiration and firmness (using a durometer). At the start of the test, the avocados were placed in cold storage. After one day, the cold treated avocados were treated with AITC directly after removal from cold storage. The coated group was treated at this time. The warm treated avocados were allowed to warm to room temperature. On the second day, measurements were begun on the cold treated avocados and AITC treatments began on the warm treated samples. On the third day, measurements began on the warm treated groups. […]
Example 23: The ripening characteristics of avocados exposed to AITC vapor, a coating agent (95 wt % glyceryl monostearate and 5 wt % sodium stearate), and AITC plus the coating agent was analyzed. […]

The subject of series [1] is non-Pd latent fungal infection. Nature of the series: AITC vapor against non-Pd latent fungal infection in mandarins. The note with it: Example 5; 125 μL (730 ppm), 1 hour exposure. The class given is in vivo. As for the experimental part: Example 5. The antifungal activity of a range of AITC vapor exposure times was tested to determine the effects against Pd in mandarins. All samples were wounded by puncturing with a screw. Mandarins were infected by dispensing 1000 Pd spores suspended in 10 μL of water in the wound. The fruit was then placed in an airtight container, 125 μL of AITC was dispensed onto a Whatman filter paper disc, the disc suspended in front of a battery-powered fan, and the container closed for 15 minutes to 2 hours. The test groups were then left at ambient temperature, high humidity, and assessed for Pd mold after 6 days. The test groups consisted of mandarins that were: uninfected and untreated; infected and untreated; infected and treated with 0.5 g/L imazalil; infected, treated with 125 μL of AITC on the filter paper, and exposed to the vapor for 15 minutes, 30 minutes, 1 hour, and 2 hours. […] A non-Pd latent fungal infection confounded results for the imazalil control and the 1 hour AITC treatment. […] A 30 minute exposure to an AITC vapor concentration of 730 ppm appeared to either substantially prevent mold infection or reduce the severity of infection. Longer exposure time increased the antifungal efficacy. […] Longer exposure times were effective at largely eliminating these pathogens.

The subject of series [2] is Penicillium digitatum (Pd). Nature of the series: Antifungal activity of vapor against Penicillium digitatum (Pd) in wounded, infected mandarins. The series is classed as in vivo. As to conditions: for effect on Pd mold: Example 5, assessed after 6 days; for infected mandarins: Example 6.

Structures are written as SMILES.

Here are results for one molecule from US20230292776A1, “GAS PHASE TREATMENT OF PRODUCE” (priority 2022, published 2023).

Take `C=CCN=C=S` [AITC, allyl isothiocyanate]: the “effect on avocado peel and firmness” value in the series with avocados was “causes darkening and thickening of the avocado peel and a prolonged feeling a firmness”. The “response of latent pathogens to AITC vapor” value in series [1] is reported as “substantially resistant to AITC vapor”. Besides, in series [2] (Example 2, mandarins, 72 hours vapor of 3 mL), the “inhibition of fungal growth (Pd)” value is reported as “approximately 100%”. In addition, the Pd mold growth entry in series [2] (Example 4, doses of 125 μL, 250 μL & 500 μL, airtight container, 18 hours, 6 days) is “substantially prevented the growth mold”. The “effect on Pd mold” value in series [2] (125 μL (730 ppm), 30 min exposure) was “greatly reduced severity of Pd mold infection”; in series [2] (125 μL, 1 hour exposure), “greatly reduced severity and incidence of Pd mold”. The infected mandarins in series [2] (125 μL, 30 minutes, treated after 24 hours) was 8.3%; in series [2] (125 μL, 30 minutes, treated after 48 hours), 25%; in series [2] (125 μL, 30 minutes, treated after 72 hours), 16.7%; in series [2] (125 μL, 30 minutes, treated after 96 hours), 81.6%; in series [2] (125 μL, 30 minutes, treated immediately after infection (0 hours)), 58.3%. The “effect on Pd infection at lower dose” value in series [2] (Example 19, 62.5 μL (50% of the minimum inhibitory concentration), 30 minutes) is on record as “tends to reduce the severity of infection, but not eliminate the incidence of infection”.
